The numbers were not newly measured in PMC11187573, “Identification of SARS-CoV-2 Mpro inhibitors through deep reinforcement learning for de novo drug design and computational chemistry approaches” (RSC Medicinal Chemistry, 2024), which cites them from elsewhere.

The term IC50 denotes the point on the concentration scale where inhibition reaches its midpoint.

One series has as its system SARS, SARS-CoV-2 and MERS Mpro. The following applies: Origin ChEMBL; ref ChEMBL; cited from earlier work.
Consider `O=c1cc(-c2ccc(O)cc2)oc2cc(O)cc(O)c12` [CHEMBL28, Oc(cc1)ccc1C(Oc1c2c(O)cc(O)c1)=CC2=O], for which the concentration for half-maximal inhibition (IC50) was 3.02 µM.

For `CC(Cc1ccc(O)c(O)c1)C(C)Cc1ccc(O)c(O)c1` (centres unmarked) [CHEMBL52, CC(Cc(cc1)cc(O)c1O)C(C)Cc(cc1)cc(O)c1O], the IC50 is 2.59 µM.

With `Cc1c(OCC(F)(F)F)ccnc1C[S+]([O-])c1nc2ccccc2[nH]1` (centres unmarked) [CHEMBL480, Cc(c(C[S+](c1nc(cccc2)c2[nH]1)[O-])ncc1)c1OCC(F)(F)F], the IC50 was 0.995 µM.

With `O=c1cc(-c2ccccc2)oc2cc(O)c(O)c(O)c12` [CHEMBL8260, Oc(cc(c1c2O)OC(c3ccccc3)=CC1=O)c2O], the half-maximal inhibitory concentration (IC50) is 0.02 µM.

As to `CNC(=O)ON(C(C)=O)C(=O)NC` [CHEMBL9116, CC(N(C(NC)=O)OC(NC)=O)=O], the half-inhibitory concentration (IC50) is 1.33 µM.

Consider `Cc1ccc(S(=O)(=O)N[C@@H](Cc2ccccc2)C(=O)CCl)cc1` [CHEMBL60718, Cc(cc1)ccc1S(N[C@@H](Cc1ccccc1)C(CCl)=O)(=O)=O], for which the half-inhibitory concentration (IC50) was 1.37 µM.

As to `O=c1c(O)cccc2cc(O)c(O)c(O)c12` [CHEMBL66953, Oc(cc(C=CC=C(C1=O)O)c1c1O)c1O], the half-inhibitory concentration (IC50) is 4.58 µM.

For `Nc1nc(S)c2ncn(C3OC(CO)C(O)C3O)c2n1` (centres unmarked) [CHEMBL119171, Nc(nc1S)nc2c1ncn2C(C1O)OC(CO)C1O], the IC50 was 1.08 µM.

Turning to `CN(C)C(=S)SSC(=S)N(C)C` [CHEMBL120563, CN(C)C(SSC(N(C)C)=S)=S], the IC50 was 0.05 µM.

Regarding `O=C(O)CCCCCCCCCCCCCCc1ccc(I)cc1` [CHEMBL128251], the 50% inhibitory concentration (IC50) is 2.25 µM.

Take `C=CC(=O)c1ccc2ccccc2c1` [CHEMBL154580, C=CC(c1cc2ccccc2cc1)=O]: the half-inhibitory concentration (IC50) is 1.24 µM.

For `C[N+]1(C)CCC(OC(=O)C(c2ccccc2)c2ccccc2)CC1` [CHEMBL168067, C[N+](C)(CC1)CCC1OC(C(c1ccccc1)c1ccccc1)=O], the IC50 is 2.36 µM.

Regarding `Cc1coc2c1C(=O)C(=O)c1c-2ccc2c1CCCC2(C)C` [CHEMBL187266, CC(C)(CCC1)c(cc2)c1c(C1=O)c2-c(occ2C)c2C1=O], the IC50 was 1.6 µM.

For `O=C1C(=O)N(Cc2cc3ccccc3s2)c2ccc(F)cc21` [CHEMBL187598, O=C(c(cc(cc1)F)c1N1Cc2cc(cccc3)c3s2)C1=O], the half-maximal inhibitory concentration (IC50) was 4.82 µM.

For the molecule `O=C1C(=O)N(Cc2cc3ccccc3s2)c2c1cccc2[N+](=O)[O-]` [CHEMBL187717, [O-][N+](c(cccc1C2=O)c1N(Cc1cc(cccc3)c3s1)C2=O)=O], the concentration for half-maximal inhibition (IC50) was 2 µM.

For `O=C1C(=O)N(Cc2cc3ccccc3s2)c2ccc(I)cc21` [CHEMBL190743, O=C(c(cc(cc1)I)c1N1Cc2cc(cccc3)c3s2)C1=O], the half-inhibitory concentration (IC50) was 0.95 µM.

In the next series the test system is Mpro. The following applies: ML dataset, Origin COVID_Moonshot; ref COVID Moonshot; cited from earlier work.
Take `O=C1CC(C(=O)N2CCN(c3cccc(Cl)c3)CC2)c2ccccc2N1` (centres unmarked) [MAT-POS-450cb4f9-1]: the 50% inhibitory concentration (IC50) is 20.9 µM.

Consider `Cc1cc(C)c(C)c(S(=O)(=O)N2CCN(C(=O)c3cc(=O)[nH]c4ccccc34)CC2)c1C` [MAT-POS-916a2c5a-3], for which the IC50 was 6.11 µM.

Regarding `O=C(c1cc(=O)[nH]c2ccccc12)N1CCN(c2ccccc2)CC1` [MAT-POS-916a2c5a-4, MAT-POS-916a2c5a-4, Mpro-x3303], the IC50 was 19 µM.

On to `O=C(c1cc(=O)[nH]c2ccccc12)N1CCN(c2ccccc2)CC1` [MAT-POS-916a2c5a-4], for which the half-inhibitory concentration (IC50) is 19 µM.

Consider `Cc1ccncc1NC(=O)Cc1cc(Cl)cc(NC2CCC(F)(F)C2O)c1` (centres unmarked) [MAT-POS-044491d2-2], for which the IC50 was 24.4 µM.

On to `Cc1ccncc1NC(=O)Cc1cc(Cl)cc(NC2(C)CCC(F)(F)CC2)c1` [MAT-POS-044491d2-6], for which the IC50 is 30.1 µM.

On to `O=C1CC(Oc2cc(Cl)cc(N(CCC3CCCCC3)C(=O)Nc3cncc4ccccc34)c2)N1` (centres unmarked) [MAT-POS-53907a1c-3, O=C(Nc1cncc2ccccc12)N(CCC1CCCCC1)c1cc(Cl)cc(OC(C2)NC2=O)c1, reference compound], for which the half-inhibitory concentration (IC50) is 0.84 µM.

Turning to `CNc1ccc(N(C(=O)Cn2nnc3ccccc32)c2cccc(Cl)c2)cc1` [MAT-POS-06036648-5], the IC50 was 7.95 µM.

As to `Cc1ccncc1NC(=O)[C@H]1CCOc2ccc(Cl)cc21` [MAT-POS-b3e365b9-3], the IC50 was 5.66 µM.

For the molecule `CC(C)c1ccncc1NC(=O)Cc1cccc(Cl)c1` [MAT-POS-bb423b95-5], the IC50 is 22.9 µM.

Regarding `N#Cc1ncn(CC(=O)Nc2ccc(Br)cc2Cl)n1` [MAT-POS-e10a589d-4], the half-inhibitory concentration (IC50) was 9.3 µM.

As for `CCCCc1nc(-c2nccn2Cc2ccoc2)c[nH]1` [MAT-POS-ea426761-53], the concentration for half-maximal inhibition (IC50) is 14.3 µM.

As to `O=C1CC(C(=O)Nc2cncc3ccccc23)c2cc(Cl)cc(Cl)c2N1` (centres unmarked) [MAT-POS-f39f51fd-1], the IC50 was 2.74 µM.

Consider `Cc1ccncc1NC(=O)Cc1cc(Cl)cc(-c2ccc(C3CC3(F)F)cc2)c1` (centres unmarked) [MAT-POS-f42f3716-1], for which the IC50 was 5.64 µM.

As for `CCc1cc(F)ccc1-c1cc(Cl)cc(CC(=O)Nc2cnccc2C)c1` [MAT-POS-f42f3716-4], the half-inhibitory concentration (IC50) is 28.8 µM.

As to `Cc1ccncc1NC(=O)Cc1cc(Cl)cc(-c2ccc(C3(C)CCO3)cc2)c1` (centres unmarked) [MAT-POS-f42f3716-5], the concentration for half-maximal inhibition (IC50) is 12.1 µM.

With `Cc1ccncc1NC(=O)Cc1cc(Cl)cc(-c2cnn(C)c2C(F)F)c1` [MAT-POS-f42f3716-7], the IC50 is 17.6 µM.

Regarding `CC(C)(C)c1ccc(N(C(=O)c2cn[nH]c2)C(C(=O)NCCc2cccc(F)c2)c2cccnc2)cc1` (centres unmarked) [MAT-POS-f2460aef-5], the IC50 is 5.33 µM.

As to `CN1C(=O)CC(O)(C(=O)Nc2cncc3ccccc23)c2cc(Cl)ccc21` (centres unmarked) [MAT-POS-f9802937-2], the IC50 was 20.7 µM.

As for `CN(C)C(=O)C[C@]1(C(=O)Nc2cncc3ccccc23)CCOc2ccc(Cl)cc21` [MAT-POS-f9802937-3], the IC50 is 1.3 µM.

For `CN(C)C(=O)C[C@@]1(C(=O)Nc2cncc3ccccc23)CCOc2ccc(Cl)cc21` [MAT-POS-f9802937-4], the IC50 was 20.5 µM.

In the case of `CCOc1c(Cl)cccc1CC(=O)Nc1cncc2ccccc12` [MAT-POS-fce787c2-1], the half-maximal inhibitory concentration (IC50) is 6.96 µM.

For the molecule `O=C(Cc1cc(Cl)cc(Cl)c1)Nc1cncc2ccccc12` [MAT-POS-fce787c2-2], the half-inhibitory concentration (IC50) was 1.37 µM.

In the case of `O=C(Nc1cncc2ccccc12)C(O)c1ccc(Cl)c(Cl)c1` (centres unmarked) [MAT-POS-fce787c2-4], the IC50 is 2.01 µM.

For the molecule `O=C(Nc1cncc2ccccc12)C(CO)c1ccc(Cl)c(Cl)c1` (centres unmarked) [MAT-POS-fce787c2-11], the IC50 was 19.3 µM.

`O=C(Cc1cc(Cl)cc(Cc2ccn[nH]2)c1)Nc1cncc2ccccc12` [PET-UNK-372a2f82-1]: the IC50 was 7.22 µM.

For the molecule `O=C(Cc1cncc2ccccc12)Nc1cccc(Cl)c1` [PET-UNK-8922bd3c-1], the IC50 is 6.84 µM.

In the case of `O=C(Cc1cc(Cl)ccc1Cl)Nc1cncc2ccccc12` [PET-UNK-dd44aeb6-2], the IC50 was 1.02 µM.

With `O=C(Cc1cc(Cl)cc(-c2nnc[nH]2)c1)Nc1cncc2ccccc12` [RAL-THA-1d44ff04-8], the 50% inhibitory concentration (IC50) is 5.3 µM.

`O=C(Cc1ccc(Cl)cc1)Nc1cncc2ccccc12` [RAL-THA-2d450e86-2]: the concentration for half-maximal inhibition (IC50) was 23.7 µM.

Consider `Cc1ccc(CC(=O)Nc2cncc3ccccc23)cc1` [RAL-THA-2d450e86-3], for which the IC50 is 58.4 µM.

`COc1ccc(CC(=O)Nc2cncc3ccccc23)cc1` [RAL-THA-2d450e86-4]: the IC50 is 72.5 µM.

As to `Cc1ccc(CC(=O)Nc2cncc3ccccc23)cc1Cl` [RAL-THA-2d450e86-8], the IC50 is 1.09 µM.

In the case of `O=C(Cc1ccc(Cl)c(F)c1)Nc1cncc2ccccc12` [RAL-THA-2d450e86-9], the IC50 was 2.03 µM.

For `COc1cccc(CC(=O)Nc2cncc3ccccc23)c1` [RAL-THA-2d450e86-11], the IC50 was 30.5 µM.

Regarding `O=C(Cc1cc(F)cc(Cl)c1)Nc1cncc2ccccc12` [RAL-THA-2d450e86-14], the 50% inhibitory concentration (IC50) is 0.383 µM.

With `O=C(Cc1cccc(Cl)c1F)Nc1cncc2ccccc12` [RAL-THA-2d450e86-19], the IC50 is 23.6 µM.

With `O=C(Cc1cccc(C(F)(F)F)c1)Nc1cncc2ccccc12` [RAL-THA-2d450e86-31], the 50% inhibitory concentration (IC50) was 6.94 µM.

For `O=C(Cc1ccc(C(F)(F)F)cc1)Nc1cncc2ccccc12` [RAL-THA-2d450e86-32], the IC50 is 24.8 µM.

Turning to `O=C(Cc1ccncc1Cl)Nc1cncc2ccccc12` [RAL-THA-2d450e86-34], the 50% inhibitory concentration (IC50) was 52.6 µM.

As to `Cc1ccccc1CC(=O)Nc1cncc2ccccc12` [RAL-THA-2d450e86-38], the IC50 is 29.5 µM.

Take `COc1ccccc1CC(=O)Nc1cncc2ccccc12` [RAL-THA-2d450e86-39]: the IC50 was 35 µM.

Take `COCCN1CCC(C(=O)Nc2cncc3ccccc23)c2cc(Cl)ccc21` (centres unmarked) [RAL-THA-4aa06b95-7]: the IC50 was 0.564 µM.

In the case of `CNC(=O)c1cc(Cl)cc(CC(=O)Nc2cnccc2C)c1` [RAL-THA-6b94ceba-7], the concentration for half-maximal inhibition (IC50) is 47.7 µM.

As for `Cc1ccncc1NC(=O)Cc1cc(Cl)cc(CNS(C)(=O)=O)c1` [RAL-THA-6b94ceba-12], the IC50 was 24.4 µM.

Turning to `Cc1ccncc1NC(=O)Cc1cc(Cl)cc(S(N)(=O)=O)c1` [RAL-THA-6b94ceba-13], the IC50 is 13.9 µM.

`O=C(Nc1cncc2ccccc12)C1CCN(Cc2ccccc2)c2ccc(Cl)cc21` (centres unmarked) [RAL-THA-8416115c-1]: the half-inhibitory concentration (IC50) is 1.06 µM.

Regarding `O=C(Nc1cncc2ccccc12)C1CCN(Cc2ccn[nH]2)c2ccc(Cl)cc21` (centres unmarked) [RAL-THA-8416115c-6], the half-maximal inhibitory concentration (IC50) was 0.803 µM.

For `CN(C)C(=O)CN1CCC(C(=O)Nc2cncc3ccccc23)c2cc(Cl)ccc21` (centres unmarked) [RAL-THA-8416115c-9], the half-inhibitory concentration (IC50) is 2.54 µM.

As to `CNC(=O)Nc1ccc(N(Cc2ccsc2)C(=O)Cn2nnc3ccccc32)cc1` [ROB-IMP-e811baff-1], the 50% inhibitory concentration (IC50) is 8.37 µM.

On to `Cc1ccncc1NC(=O)Cc1cc(C#N)cc(OC2CC(=O)N2)c1` (centres unmarked) [TRY-UNI-2eddb1ff-6], for which the half-inhibitory concentration (IC50) was 10.1 µM.

Consider `O=C(Cc1ccc(Cl)c(Cl)c1)Nc1cncc2cnccc12` [VLA-UNK-82501c2c-1], for which the IC50 was 1.85 µM.

On to `O=C(Cc1ccc(Cl)c(Cl)c1)Nc1cncc2ccncc12` [VLA-UNK-82501c2c-2], for which the half-maximal inhibitory concentration (IC50) was 1.79 µM.

Regarding `N#Cc1cc(Cl)cc(NC(=O)Nc2cccnc2)c1` [WAR-XCH-eb7b662f-2], the half-inhibitory concentration (IC50) is 99 µM.

In the case of `Cc1ccncc1NC(=O)Cc1cc(Cl)cc(NS(C)(=O)=O)c1` [WIL-MOD-03b86a88-5], the IC50 is 21.8 µM.
